Molecules are shown by their SMILES. Read-outs that look alike come from different tables or passages of the source.

The text below walks through data of US20260234150A1, “COMPOUND FOR INHIBITING NLRP3, PREPARATION METHOD, AND USE” (DOVETREE MEDICINES UNUS, INC., priority 2023, published 2026).

The target of one experiment is T1, CYP3A4 (Homo sapiens, UniProt P08684).
T1 construct: 0.05 mg/mL liver microsome (BioIVT, IHG) phosphate buffer solution; tissue BioIVT IHG; host or cells: human liver microsomes
T1 sequence (P08684 whole entry): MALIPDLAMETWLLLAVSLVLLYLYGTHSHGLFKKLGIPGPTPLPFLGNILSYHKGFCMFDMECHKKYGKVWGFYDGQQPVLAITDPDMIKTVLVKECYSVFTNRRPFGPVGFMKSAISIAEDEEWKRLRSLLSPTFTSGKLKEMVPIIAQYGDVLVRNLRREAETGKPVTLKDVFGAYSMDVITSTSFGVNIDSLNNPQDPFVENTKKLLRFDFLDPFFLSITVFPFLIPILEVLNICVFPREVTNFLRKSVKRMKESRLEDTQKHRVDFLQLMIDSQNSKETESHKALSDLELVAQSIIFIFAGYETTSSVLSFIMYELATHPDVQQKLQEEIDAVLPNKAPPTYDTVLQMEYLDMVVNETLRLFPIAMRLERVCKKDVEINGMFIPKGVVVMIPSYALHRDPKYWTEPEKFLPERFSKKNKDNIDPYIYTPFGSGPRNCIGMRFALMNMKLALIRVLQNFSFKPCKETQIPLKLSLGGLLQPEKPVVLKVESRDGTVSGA
Put plainly: CYP450 enzyme inhibition in human liver microsomes, CYP3A4. The class given is in vitro ADME. The protocol: This experiment incubates the compound, liver microsomes and different CYP subtype enzyme substrates in a 37° C. water bath to measure the amount of substrate metabolites produced and evaluate the inhibitory effect of the compound of the present disclosure on CYP enzymes based on the IC50 value.
i. The compound was diluted to 0, 0.02 mM, 0.06 mM, 0.2 mM, 0.6 mM, 2 mM and 6 mM concentrations with DMSO (Aladdin, catalog number: D103273-500 ml).
ii. The enzyme substrate solutions of each CYP subtype were prepared by phosphate buffer (sigma: V900050-500G).
iii. Sample incubation. […] After centrifugation at 4000 rpm and 4° C. for 40 min, the supernatant was diluted with pure water according to the response of the substrate metabolites and then detected by UPLC-MS/MS (Sciex, Q-Trap 4500). […]
The inhibitory effect of the compound on each P450 enzyme in human liver microsomes was calculated as the percentage of reduced metabolite formation compared with the non-inhibitory control (i.e., blank DMSO). The IC50 value for each P450 enzyme in human liver microsomes was calculated using the logarithm of the remaining activity and the inhibitor concentration using Graphpad Prism software. […]

The subject of experiment [1] is iodoacetic acid (MIA)-induced SD rat knee osteoarthritis model. The experiment is described as follows: Iodoacetic acid (MIA)-induced SD rat knee osteoarthritis model. The class given is in vivo, SD rats. The following applies: 30 mg/kg orally once a day from Day 7 to Day 42; compared with model blank control group; 21 days to 42 days after modeling. Here is the method:
Purpose: Evaluate the efficacy of MCC950 (Positive reference compound) and compound 111 of the present disclosure on iodoacetic acid (MIA)-induced SD rat knee osteoarthritis model.
Experimental materials: Experimental male SD rats, 4 weeks old.
Model induction began after the experimental animals were adapted to the animal environment for 7 days. Day 0, the rats were anesthetized, the hair around the left knee joint was removed, and the skin was disinfected. The left leg was flexed 90° to expose the patellar platform. The depression in the middle of the platform was touched by hand to find the femoral condyle, patella and ligament. The syringe needle was inserted from the bottom of the patella on both sides of the patellar ligament to the direction of the femoral condyle. When a clear sense of empty space was felt, 50 μL of iodoacetic acid solution was injected. Day 7 Grouping was performed according to the width of the knee joint on the induced side. The groups were: normal control group (healthy control without modeling, 5% DMSO+10% Solutol+85% Saline), model blank control group (5% DMSO+10% Solutol+85% Saline), MCC950 30 mg/kg, and compound 111 of the present disclosure 30 mg/kg. Starting from Day 7, the normal control group and the model blank control group were given the solvent (5% DMSO+10% Solutol+85% Saline) orally once a day, and the other groups were given the corresponding compounds orally once a day until the end of the administration on Day 42. The knee joint width and body weight of the rats were measured once on Day 7, 14, 21, 28, 35, and 42.

Regarding `CC(=O)N1CCOC[C@H]1CNc1nc2nc(-c3c(C)cc(C(F)(F)F)cc3O)ccc2o1` [Compound 111], the IC50 (commonly the point on the concentration scale where inhibition reaches its midpoint) at CYP3A4 (substrate Midazolam, read-out: Inhibitory activity IC50 (μM) CYP3A4-M) was 28.7 µM; at CYP3A4 (substrate Testosterone, read-out: Inhibitory activity IC50 (μM) CYP3A4-T), greater than 30 µM. The “widening of the knee joints (knee joint width)” value in experiment [1] was “could significantly inhibit the widening of the knee joints”.
